From patent US20250327032A1, “AGENT FOR AVOIDING IMMUNE RESPONSE OF TRANSGENIC CELLS” (HYPERION DRUG DISCOVERY CO., LTD., priority 2021, published 2025)

How the values were obtained:
Format in all cases: cell-based
[1] = tested on: human mesenchymal stem cells; assay: Introduction of GFP mRNA by lipofection, yield of GFP-positive cells; conditions: calcitriol 1 μM; GFP mRNA containing pseudouridine instead of uridine, 10 pg/cell
Experimental: (§1) Human mesenchymal stem cells were seeded in a 6-well plate to be about 10,000 cells/cm^2. Human myoblasts were seeded in another 6-well plate to be about 20,000 cells/cm^2. As a culture solution, a basal medium for each cell supplemented with 0.1, 1, or 10 μM of JSH-23 was used. As a control, a basal medium for each cell supplemented with 0.1% (v/v) DMSO instead of JSH-23 was used as a culture solution.
(§2) A lipofection solution was prepared by adding Lipofectamine RNAiMAX and fluorescent protein GFP mRNA to OptiMEM. As the GFP mRNA, that containing uridine or that containing pseudouridine instead of uridine was used. In addition, for those containing pseudouridine, a basal medium for each cell supplemented with 1 μM of JSH-23 was used, and as a control, a basal medium for each cell supplemented with 0.1% (v/v) DMSO instead of JSH-23 was used as a culture solution. It was prepared so that the amount of mRNA was 10 pg/cell for human mesenchymal stem cells and 5 pg/cell for human myoblasts. The prepared lipofection solution was mixed well according to the manufacturer's recommended protocol and allowed to stand at room temperature for about 15 minutes.
(§3) Next, each lipofection solution was added to the plate seeded with human mesenchymal stem cells or human myoblasts, and cultured in a CO2 incubator at 37° C. for about 1 day (18 hours) (human mesenchymal stem cells) or for 2 days (42 hours) (human myoblasts). After culturing, all the culture solution comprising the lipofection solution was removed and replaced with a new culture solution having the same composition as before the addition of the lipofection solution.
(§4) After another 6 hours, the above lipofection solution was newly prepared, added again to the plate seeded with human mesenchymal stem cells or human myoblasts, and cultured in a CO2 incubator at 37° C. for about 1 day (18 hours) (mesenchymal stem cells) or about 2 days (42 hours) (human myoblasts). These steps were repeated so that the introduction of genes was performed a total of 4 times.
(§5) Twenty-four hours after the final introduction of genes, the cells were detached with a cell detachment solution, centrifuged at 600×g for 5 minutes using a centrifuge, to collect the cells. The collected cells were counted using a hemocytometer. Furthermore, the GFP-positive percentage of the collected cells was measured using a flow cytometer. The yield of the number of GFP-positive cells was calculated from the number of cells counted and the GFP-positive rate.
as §1, with “1” for “0.1, 1, or 10”, “calcitriol” for “JSH-23”
(§6) A lipofection solution was prepared by adding Lipofectamine RNAiMAX and fluorescent protein GFP mRNA to OptiMEM. As the GFP mRNA, that containing uridine, or that containing pseudouridine instead of uridine was used. It was prepared so that the amount of mRNA was 10 pg/cell for human mesenchymal stem cells and 5 pg/cell for human myoblasts. The prepared lipofection solution was mixed well according to the manufacturer's recommended protocol and allowed to stand at room temperature for about 15 minutes.

human myoblasts [2] = assay: as above; conditions: calcitriol 1 μM
Experimental: as §1, §2, §3, §4, §5
as §1, with “1” for “0.1, 1, or 10”, “calcitriol” for “JSH-23”
as §6

human myoblasts [3] = assay: Introduction of GFP viral vector (polybrene method), yield of GFP-positive cells; conditions: calcitriol 1 μM; viral vector MOI 0.1, 5 or 10, polybrene 0, 5 or 10 μg/mL; depending on the transduction conditions
Experimental: Human mesenchymal stem cells were seeded in a 6-well plate to be about 2,000 cells/cm^2. Human myoblasts were seeded in another 6-well plate to be about 2,000 cells/cm^2. As a culture solution, a basal medium for each cell supplemented with JSH-23 was used. JSH-23 was added at 1 μM to the culture solution used for human mesenchymal stem cells, and at 0.1 μM to the culture solution used for human myoblasts. As a control, a basal medium, i.e., αMEM (+10% serum) for human mesenchymal stem cells and MCDB131 (+10% serum) for human myoblasts, to which 0.1% (v/v) DMSO instead of JSH-23 was added was used as a culture solution.
A mixed solution was prepared by mixing GFP viral vector and a polybrene solution. […]
Next, the above mixed solution was added to the plate seeded with human mesenchymal stem cells or human myoblasts, and cultured in a CO2 incubator at 37° C. for 24 hours.
as §5, with “Four days” for “Twenty-four hours”, “addition” for “final introduction”, “the virus-free culture solution,” for “genes,”, “solution and” for “solution,”, “percentage. […]” for “rate.”

[4] = tested on: human mesenchymal stem cells; assay: Introduction of GFP mRNA with PEIMAX and other NFκB nuclear translocation inhibitors (Example 13), cell yield; conditions: GFP mRNA 10 pg/cell, PEIMAX
Experimental: Improvement in the yield of transgenic cells was investigated when using the NFκB nuclear translocation inhibitor of the present invention other than JSH-23 and calcitriol. Introduction of genes was performed using vitamin B6, vitamin C, vitamin E, and rolipram as an NFκB nuclear translocation inhibitor other than JSH-23 and calcitriol. The specific procedure is as follows.
Human mesenchymal stem cells were seeded in a 6-well plate to be about 10,000 cells/cm^2. As a culture solution, a basal medium supplemented with vitamin B6 and vitamin E at 2 μM and 10 μM, vitamin C at 20 μM and 100 μM, and rolipram at 10 μM was used. As a control, the basal medium for each cell supplemented with 0.1% (v/v) DMSO instead of each compound was used as a culture solution.
A lipofection solution was prepared by adding PEIMAX and fluorescent protein GFP mRNA to OptiMEM. It was prepared so that the amount of mRNA was 10 pg/cell. […]
as §5, with “cells. In addition, the” for “cells. The”, “GFP-positive percentage.” for “GFP-positive rate.”

C=C1/C(=C\C=C2/CCC[C@]3(C)[C@@H]([C@H](C)CCCC(C)(C)O)CC[C@@H]23)C[C@@H](O)C[C@@H]1O [calcitriol]
yield of GFP-positive cells compared to the control (control set to 1) [1]: ≥ 2.7 times
yield of GFP-positive cells compared to the control (control set to 1) (human myoblasts [2]; GFP mRNA containing pseudouridine instead of uridine, 5 pg/cell): ≥ 4 times
yield of GFP-positive cells compared to the control (control set to 1) (human myoblasts [2]; GFP mRNA containing uridine, 5 pg/cell, second statement of b89): ≥ 5 times
yield of GFP-positive cells compared to the control (control set to 1) (human myoblasts [2]; GFP mRNA containing uridine, first statement of b89, printed as human myoblasts): ≥ 7 times
increase of the number of GFP-positive cells by adding calcitriol (human myoblasts [3]): about 4.5 times

Cc1ncc(CO)c(CO)c1O.Cl [vitamin B6]
number of viable cells after introduction of genes relative to control (set to 1) ([4]; compound at 2 μM and 10 μM): about 1.2 times

COc1ccc(C2CNC(=O)C2)cc1OC1CCCC1 (stereo not shown) [rolipram]
number of viable cells after introduction of genes relative to control (set to 1) ([4]; compound at 10 μM): about 1.3 times
